Patent publication US9765018B2, “IDO inhibitors” (BRISTOL-MYERS SQUIBB COMPANY, priority 2013, dated 2017)

How the values were obtained:
Human IDO1 = Human IDO1 (Homo sapiens (Human), UniProt P14902); assay: IDO Kynurenine Assay with Human IDO1/HEK293 Cells; format: cell-based; settings: HEK293 cells with human IDO1; read-out: HEK human IDO-1 (IC50)
Experimental: IDO Kynurenine Assay with Human IDO1/HEK293 Cells
Human IDO1/HEK293 cells were seeded at 10,000 cells per 50 uL per well with RPMI/phenol red free media contains 10% FBS in a 384-well black wall clear bottom tissue culture plate (Matrix Technologies LLC) 125 nL of certain concentration of compound was then added to each well using ECHO liquid handling systems. The cells were incubated for 20 hours in 37° C. incubator with 5% CO2.
The compound treatments were stopped by adding Trichloroacetic Acid (Sigma-Aldrich) to a final concentration at 0.2%. The cell plate was further incubated at 50° C. for 30 minute. The equal volume supernatant (20 uL) and 0.2% (w/v) Ehrlich reagent (4-dimethylaminobenzaldehyde, Sigma-Aldrich) in glacial acetic acid were mixed in a new clear bottom 384-well plate. This plate was then incubated at room temperature for 30 minute. The absorbance at 490 nm was measured on Envision plate reader.

IDO [1] = target: T1, IDO (Homo sapiens (Human), UniProt P14902); assay: Kynurenine assay in IFN-γ-stimulated Hela cells; format: cell-based; settings: 20 h, read-out: Hela Kyurenine (IC50)
Outline: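 Kynurenine in supernatant is read at 490 nm after Ehrlich reagent (10 min RT), following TCA stop and 30 min at 50° C hydrolysis. Before that, Hela cells in phenol red-free RPMI/10% FBS were co-treated 20 h at 37° C with 100 ng/mL IFN-γ and compound (30 μM top, 3-fold series to 1.5 nM).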

IDO [2] = target: T1, IDO; assay: LLE_IDO_ABS_DR (IDO assay, method not described)

Human IDO1, sequence (P14902 whole entry): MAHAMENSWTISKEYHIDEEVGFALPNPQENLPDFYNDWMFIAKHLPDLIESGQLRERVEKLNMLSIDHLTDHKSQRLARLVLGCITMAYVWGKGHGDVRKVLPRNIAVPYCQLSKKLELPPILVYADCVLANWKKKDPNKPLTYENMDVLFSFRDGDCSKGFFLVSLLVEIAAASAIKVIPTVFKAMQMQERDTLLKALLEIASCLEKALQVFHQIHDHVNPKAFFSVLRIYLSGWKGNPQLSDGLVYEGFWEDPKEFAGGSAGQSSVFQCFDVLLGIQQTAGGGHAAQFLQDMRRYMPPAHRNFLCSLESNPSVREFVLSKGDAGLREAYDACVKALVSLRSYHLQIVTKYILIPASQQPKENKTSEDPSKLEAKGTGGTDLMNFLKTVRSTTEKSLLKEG
T1 sequence (P14902 whole entry): as above

SMILES	IC50 (Human IDO1) [nM]	IC50 (IDO [1]) [nM]	IC50 (IDO [2]) [nM]
COc1ccc(-c2ccc(Oc3ccccc3C3CC3)c(NC(=O)Nc3ccc(C)cc3)c2)cc1C(=O)O [Example 127, 4′-(2-cyclopropylphenoxy)-4-methoxy-3′-(3-p-tolylureido)biphenyl-3-carboxylic acid]	3290	490	2430
Cc1ccccc1NC(=O)Nc1cc(-c2cc(F)cc(C(=O)O)c2)ccc1Oc1ccccc1C(C)(C)C [Example 254, 4′-(2-tert-butylphenoxy)-5-fluoro-3′-(3-o-tolylureido) biphenyl-3-carboxylic acid]	1620	350	1160
COc1ccc(-c2ccc(Oc3ccccc3C(C)(C)C)c(NC(=O)Nc3ccccc3C(F)(F)F)c2)cc1C(=O)O [Example 46, 4′-(2-tert-butylphenoxy)-4-methoxy-3′-(3-(2-(trifluoromethyl)phenyl)ureido)biphenyl-3-carboxylic acid]	540	50	320
COc1ccc(-c2ccc(Oc3cccc4c3CCCC4)c(NC(=O)Nc3cccc(C)c3)c2)cc1C(=O)O [Example 116, 4-methoxy-4′-(5,6,7,8-tetrahydronaphthalen-1-yloxy)-3′-(3-m-tolylureido)biphenyl-3-carboxylic acid]	790	100	780
Cc1cccc(NC(=O)Nc2cc(-c3cccc(C(=O)O)c3)ccc2Oc2ccccc2C(C)(C)C)c1 [Example 225, 4′-(2-tert-butylphenoxy)-3′-(3-m-tolylureido) biphenyl-3-carboxylic acid]	7650	570	2900
C=CC(c1ccccc1)c1cc(-c2ccccc2-c2nnn[nH]2)cc(NC(=O)Nc2ccc(C)cc2)c1OCCC (racemic) [Example 8, 1-(5-(1-Phenylallyl)-4-propoxy-2′-(1H-tetrazol-5-yl)-[1,1′-biphenyl]-3-yl)-3-(p-tolyl)urea]	30	–	10
Cc1cccc(NC(=O)Nc2cc(-c3ccccc3-c3nnn[nH]3)cc(CC3CC3)c2Oc2ccccc2)c1 [Example 323]	60	–	40
C/C=C/Cc1cc(-c2ccccc2-c2nnn[nH]2)cc(NC(=O)Nc2ccc(C)cc2)c1OCCC [Example 19, (E)-1-(5-(But-2-en-1-yl)-4-propoxy-2′-(1H-tetrazol-5-yl)-[1,1′-biphenyl]-3-yl)-3-(p-tolyl)urea]	30	–	20
O=C(Nc1ccc(OC(F)(F)F)cc1)Nc1cc(-c2ccccc2-c2nnn[nH]2)cc(CC2CC2)c1OCCC(F)(F)F [Example 319]	90	–	50
Cc1ccc(NC(=O)Nc2cc(-c3cncc(C(=O)O)c3)cnc2Oc2ccccc2)cc1 [Example 339]	6180	2420	–
CCCCCc1cc(-c2ccccc2-c2nnn[nH]2)cc(NC(=O)Nc2ccccc2F)c1OCCC [Example 289]	50	–	9.83
Cc1ccc(NC(=O)Nc2cc(-c3cccc(C(=O)O)c3)ccc2Oc2ccccc2C(C)(C)C)cc1 [Example 226, 4′-(2-tert-butylphenoxy)-3′-(3-p-tolylureido) biphenyl-3-carboxylic acid]	9190	790	–
COc1cccc(NC(=O)Nc2cc(-c3cccc(C(=O)O)c3)ccc2Oc2ccccc2C(C)(C)C)c1 [Example 229, 4′-(2-tert-butylphenoxy)-3′-(3-(3-methoxyphenyl)ureido)biphenyl-3-carboxylic acid]	7500	1890	–
CCCOc1c(/C=C/C=C(F)F)cc(-c2ccccc2-c2nnn[nH]2)cc1NC(=O)Nc1ccc(C)cc1 [Example 30, (E)-1-(5-(4,4-Difluorobuta-1,3-dien-1-yl)-4-propoxy-2′-(1H-tetrazol-5-yl)-[1,1′-biphenyl]-3-yl)-3-(p-tolyl)urea]	20	–	9.95
COc1ccc(NC(=O)Nc2cc(-c3cccc(C(=O)O)c3)ccc2Oc2ccccc2C(C)(C)C)cc1 [Example 230, 4′-(2-tert-butylphenoxy)-3′-(3-(4-methoxyphenyl)ureido)biphenyl-3-carboxylic acid]	7500	1810	–
O=C(Nc1ccc(C2CC2)cc1)Nc1cc(-c2ccccc2-c2nnn[nH]2)cc(CC2CC2)c1OCCC(F)(F)F [Example 316]	40	–	40
CCCOc1c(CCC)cc(-c2ccccc2-c2nnn[nH]2)cc1NC(=O)Nc1ccc(C)cc1 [Example 16, 1-(4-Propoxy-5-propyl-2′-(1H-tetrazol-5-yl)-[1,1′-biphenyl]-3-yl)-3-(p-tolyl)urea]	30	–	30
CCCOc1c(Br)cc(-c2ccccc2-c2nnn[nH]2)cc1NC(=O)Nc1ccc(C)cc1 [Example 283]	60	–	30

SMILES	IC50 (Human IDO1) [nM]	IC50 (IDO [1]) [nM]	IC50 (IDO [2]) [nM]
CC(C)(C)c1ccccc1Oc1ccc(-c2cccc(C(=O)O)c2)cc1NC(=O)Nc1ccc(OC(F)F)cc1 [Example 223, 4′-(2-tert-butylphenoxy)-3′-(3-(4-(difluoromethoxy)phenyl)ureido) biphenyl-3-carboxylic acid]	7500	2640	–
Cc1ccccc1NC(=O)Nc1cc(-c2cccc(C(=O)O)c2)ccc1Oc1ccccc1C(C)(C)C [Example 224, 4′-(2-tert-butylphenoxy)-3′-(3-o-tolylureido) biphenyl-3-carboxylic acid]	7500	1020	–
CCCOc1c(NC(=O)Nc2ccc(C)cc2)cc(-c2ccccc2-c2nnn[nH]2)cc1C(CC)CCCc1ccccc1 (stereo not drawn) [compound 297]	90	–	50
CC(C)(C)c1ccccc1Oc1ccc(-c2cccc(C(=O)O)c2)cc1NC(=O)Nc1ccc(Br)cc1 [Example 233, 3′-(3-(4-bromophenyl)ureido)-4′-(2-tert-butylphenoxy) biphenyl-3-carboxylic acid]	7500	2890	–
CC/C=C/Cc1cc(-c2ccccc2-c2nnn[nH]2)cc(NC(=O)Nc2ccccc2F)c1OCCC [Example 284]	6.49	–	5.56
Cc1ccc(NC(=O)Nc2cc(-c3ccc(Cl)c(C(=O)O)c3)ccc2Oc2ccccc2C(C)(C)C)cc1 [Example 1, 4′-(2-tert-Butylphenoxy)-4-chloro-3′-(3-p-tolylureido)biphenyl-3-carboxylic acid]	6180	2420	–
CCCOc1c(NC(=O)Nc2ccc(C)cc2)cc(-c2ccccc2-c2nnn[nH]2)cc1C(CC)c1ccccc1 (stereo not drawn) [Example 298]	30	–	30
COc1ccccc1Oc1ccc(-c2ccc(OC)c(C(=O)O)c2)cc1NC(=O)Nc1ccc(C)cc1 [Example 69, 4-methoxy-4′-(2-methoxyphenoxy)-3′-(3-p-tolylureido)biphenyl-3-carboxylic acid]	6190	2090	–
O=C(Nc1ccc(OC(F)(F)F)cc1)Nc1cc(-c2ccccc2-c2nnn[nH]2)cc(CC2CC2)c1OCC1CC1 [Example 321]	30	–	10
CCCOc1c(CCCc2ccccc2)cc(-c2ccccc2C(=O)O)cc1NC(=O)Nc1ccc(C)cc1 [Example 36, 3′-(3-Phenylpropyl)-4′-propoxy-5′-(3-p-tolylureido)biphenyl-2-carboxylic acid]	20	–	30
CCCCc1cc(-c2ccccc2-c2nnn[nH]2)cc(NC(=O)Nc2ccc(C)cc2)c1OCCC [Example 22, 1-(5-Butyl-4-propoxy-2′-(1H-tetrazol-5-yl)-[1,1′-biphenyl]-3-yl)-3-(p-tolyl)urea]	5.92	–	20
CCCC(Oc1ccc(-c2ccccc2-c2nnn[nH]2)cc1NC(=O)Nc1ccc(C)cc1)c1ccccc1Cl (stereo not drawn) [Example 313]	610	–	90
CCCC(CCC)Oc1c(Br)cc(-c2ccccc2-c2nnn[nH]2)cc1NC(=O)Nc1ccccc1F [Example 287]	4.49	–	3.25
CCCOc1c(C/C=C/C(F)(F)F)cc(-c2ccccc2-c2nnn[nH]2)cc1NC(=O)Nc1ccc(C)cc1 [Example 32, (E)-1-(4-Propoxy-2′-(1H-tetrazol-5-yl)-5-(4,4,4-trifluorobut-2-en-1-yl)-[1,1′-biphenyl]-3-yl)-3-(p-tolyl)urea]	10	–	9.47
CCCOc1c(/C=C/CC(F)(F)F)cc(-c2ccccc2-c2nnn[nH]2)cc1NC(=O)Nc1ccc(C)cc1 [Example 29, (E)-1-(4-Propoxy-2′-(1H-tetrazol-5-yl)-5-(4,4,4-trifluorobut-1-en-1-yl)-[1,1′-biphenyl]-3-yl)-3-(p-tolyl)urea]	30	–	30
Cc1ccc(NC(=O)Nc2cc(-c3cc(Cl)cc(C(=O)O)c3)cnc2Oc2ccccc2C(C)(C)C)cc1 [Example 337]	7500	2260	–
CCCOc1c(CCCC(F)(F)F)cc(-c2ccccc2-c2nnn[nH]2)cc1NC(=O)Nc1ccc(C)cc1 [Example 31, 1-(4-Propoxy-2′-(1H-tetrazol-5-yl)-5-(4,4,4-trifluorobutyl)-[1,1′-biphenyl]-3-yl)-3-(p-tolyl)urea]	20	–	40
